What was measured:
[1] = test system: Serratia marcescens (SMA) isolates; experiment: MIC of compounds alone and combined with antibacterials, broth microdilution (CLSI); assay type: cell-based
In short: (§1)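 Log-phase isolates were inoculated at a final 5.10^5 CFU/mL in cation-adjusted Mueller-Hinton broth and incubated 16-20 h at 35° C in ambient air. MIC was the lowest concentration preventing visible growth; for combinations, the antibacterial MIC was read at each compound concentration.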

[2] = test system: Citrobacter freundii (CFR) isolates; experiment: as above; assay type: cell-based
In short: as §1

C=CC1=C(C(=O)O)N2C(=O)[C@@H](NC(=O)/C(=N\OCC(=O)O)c3csc(N)n3)[C@H]2SC1 [FIX, Cefixime]
MIC ATB in combination ([1]; SMA UFR30, AF2 @ 8 μg/mL): 0.5 µg/mL
MIC ATB in combination ([1]; SMA UFR30, AF3 @ 8 μg/mL): <=0.25 μg/mL
MIC ATB in combination ([1]; SMA UFR30, CLA @ 4 μg/mL): 1 µg/mL
MIC ATB in combination ([1]; SMA UFR134, AF2 @ 8 μg/mL): 0.5 µg/mL
MIC ATB in combination ([1]; SMA UFR134, AF3 @ 8 μg/mL): <=0.25 μg/mL
MIC ATB in combination ([1]; SMA UFR134, CLA @ 4 μg/mL): 32 µg/mL
MIC ATB in combination ([1]; SMA UFR135, AF2 @ 8 μg/mL): 2 µg/mL
MIC ATB in combination ([1]; SMA UFR135, AF3 @ 8 μg/mL): 2 µg/mL
MIC ATB in combination ([1]; SMA UFR135, CLA @ 4 μg/mL): 32 µg/mL
MIC ATB in combination ([1]; SMA UFR136, AF2 @ 8 μg/mL): 4 µg/mL
MIC ATB in combination ([1]; SMA UFR136, AF3 @ 8 μg/mL): 4 µg/mL
MIC ATB in combination ([1]; SMA UFR136, CLA @ 4 μg/mL): >128 µg/mL
MIC ATB in combination ([1]; SMA UFR137, AF2 @ 8 μg/mL): <=0.25 μg/mL
MIC ATB in combination ([1]; SMA UFR137, AF3 @ 8 μg/mL): <=0.25 μg/mL
MIC ATB in combination ([1]; SMA UFR137, CLA @ 4 μg/mL): 1 µg/mL
MIC ATB in combination ([1]; SMA UFR138, AF2 @ 8 μg/mL): <=0.25 μg/mL
MIC ATB in combination ([1]; SMA UFR138, AF3 @ 8 μg/mL): <=0.25 μg/mL
MIC ATB in combination ([1]; SMA UFR138, CLA @ 4 μg/mL): 0.5 µg/mL
MIC ATB in combination ([1]; SMA UFR139, AF2 @ 8 μg/mL): 1 µg/mL
MIC ATB in combination ([1]; SMA UFR139, AF3 @ 8 μg/mL): <=0.25 μg/mL
MIC ATB in combination ([1]; SMA UFR139, CLA @ 4 μg/mL): 2 µg/mL
MIC ATB in combination ([1]; SMA UFR141, AF2 @ 8 μg/mL): <=0.25 μg/mL
MIC ATB in combination ([1]; SMA UFR141, AF3 @ 8 μg/mL): 0.5 µg/mL
MIC ATB in combination ([1]; SMA UFR141, CLA @ 4 μg/mL): 0.5 µg/mL
MIC ATB in combination ([1]; SMA UFR142, AF2 @ 8 μg/mL): 0.5 µg/mL
MIC ATB in combination ([1]; SMA UFR142, AF3 @ 8 μg/mL): 1 µg/mL
MIC ATB in combination ([1]; SMA UFR142, CLA @ 4 μg/mL): 2 µg/mL
MIC ATB in combination ([1]; SMA UFR143, AF2 @ 8 μg/mL): <=0.25 μg/mL
MIC ATB in combination ([1]; SMA UFR143, AF3 @ 8 μg/mL): <=0.25 μg/mL
MIC ATB in combination ([1]; SMA UFR143, CLA @ 4 μg/mL): 64 µg/mL
MIC ATB in combination ([1]; SMA UFR239, AF2 @ 8 μg/mL): 0.25 µg/mL
MIC ATB in combination ([1]; SMA UFR239, AF3 @ 8 μg/mL): <=0.25 μg/mL
MIC ATB in combination ([1]; SMA UFR239, CLA @ 4 μg/mL): 2 µg/mL
MIC ([1]; strain SMA UFR30, genotype OXA-405): 1 µg/mL
MIC ([1]; strain SMA UFR134, genotype TEM-1, BES-1): >128 µg/mL
MIC ([1]; strain SMA UFR135, genotype TEM-1, KPC-2): 64 µg/mL
MIC ([1]; strain SMA UFR136, genotype TEM-1, SHV-12, KPC-2): >128 µg/mL
MIC ([1]; strain SMA UFR137, genotype SME-1): 0.5 µg/mL
MIC ([1]; strain SMA UFR138, genotype SME-1): 0.5 µg/mL
MIC ([1]; strain SMA UFR139, genotype SME-2): 1 µg/mL
MIC ([1]; strain SMA UFR140, genotype IMP-1): >128 µg/mL
MIC ATB in combination ([1]; strain SMA UFR140, with AF2 @ 8 μg/mL): >128 µg/mL
MIC ATB in combination ([1]; strain SMA UFR140, with AF3 @ 8 μg/mL): >128 µg/mL
MIC ATB in combination ([1]; strain SMA UFR140, with CLA @ 4 μg/mL): >128 µg/mL
MIC ([1]; strain SMA UFR141, genotype OXA-48): 2 µg/mL
MIC ([1]; strain SMA UFR142, genotype OXA-48): 2 µg/mL
MIC ([1]; strain SMA UFR143, compound alone): 512 µg/mL
MIC ([1]; strain SMA UFR143, genotype CTX-M-15, OXA-1, OXA-48): 512 µg/mL
MIC ([1]; strain SMA UFR238, genotype OXA-48): 1 µg/mL
MIC ATB in combination ([1]; strain SMA UFR238, with AF2 @ 8 μg/mL): 0.5 µg/mL
MIC ATB in combination ([1]; strain SMA UFR238, with AF3 @ 8 μg/mL): 0.5 µg/mL
MIC ATB in combination ([1]; strain SMA UFR238, with CLA @ 4 μg/mL): 2 µg/mL
MIC ([1]; strain SMA UFR239, genotype ESAC): 2 µg/mL
MIC ATB in combination ([2]; CFR UFR10, AF2 @ 8 μg/mL): <0.25 µg/mL
MIC ATB in combination ([2]; CFR UFR10, AF3 @ 8 μg/mL): <=0.25 μg/mL
MIC ATB in combination ([2]; CFR UFR10, CLA @ 4 μg/mL): 32 µg/mL
MIC ATB in combination ([2]; CFR UFR11, AF2 @ 8 μg/mL): 16 µg/mL
MIC ATB in combination ([2]; CFR UFR11, AF3 @ 8 μg/mL): 32 µg/mL
MIC ATB in combination ([2]; CFR UFR11, CLA @ 4 μg/mL): 32 µg/mL
MIC ATB in combination ([2]; CFR UFR37, AF2 @ 8 μg/mL): <=0.25 μg/mL
MIC ATB in combination ([2]; CFR UFR37, AF3 @ 8 μg/mL): <=0.25 μg/mL
MIC ATB in combination ([2]; CFR UFR37, CLA @ 4 μg/mL): >128 µg/mL
MIC ATB in combination ([2]; CFR UFR83, AF2 @ 8 μg/mL): >128 µg/mL
MIC ATB in combination ([2]; CFR UFR83, AF3 @ 8 μg/mL): >128 µg/mL
MIC ATB in combination ([2]; CFR UFR83, CLA @ 4 μg/mL): >128 µg/mL
MIC ATB in combination ([2]; CFR UFR146, AF2 @ 8 μg/mL): 2 µg/mL
MIC ATB in combination ([2]; CFR UFR146, AF3 @ 8 μg/mL): 1 µg/mL
MIC ATB in combination ([2]; CFR UFR146, CLA @ 4 μg/mL): 64 µg/mL
MIC ATB in combination ([2]; CFR UFR248, AF2 @ 8 μg/mL): <0.25 µg/mL
MIC ATB in combination ([2]; CFR UFR248, AF3 @ 8 μg/mL): <=0.25 μg/mL
MIC ATB in combination ([2]; CFR UFR248, CLA @ 4 μg/mL): 4 µg/mL
MIC ATB in combination ([2]; CFR UFR249, AF2 @ 8 μg/mL): <=0.25 μg/mL
MIC ATB in combination ([2]; CFR UFR249, AF3 @ 8 μg/mL): <=0.25 μg/mL
MIC ATB in combination ([2]; CFR UFR249, CLA @ 4 μg/mL): 2 µg/mL
MIC ATB in combination ([2]; CFR UFR250, AF2 @ 8 μg/mL): <0.25 µg/mL
MIC ATB in combination ([2]; CFR UFR250, AF3 @ 8 μg/mL): <0.25 µg/mL
MIC ATB in combination ([2]; CFR UFR250, CLA @ 4 μg/mL): 2 µg/mL
MIC ([2]; strain CFR UFR10, genotype OXA-48): >128 µg/mL
MIC ([2]; strain CFR UFR11, genotype TEM-1, OXA-1, OXA-48): 32 µg/mL
MIC ([2]; strain CFR UFR37, genotype TEM-1, CTX-M-15, NDM-1): >128 µg/mL
MIC ([2]; strain CFR UFR83, genotype TEM-3, AmpC): >128 µg/mL
MIC ([2]; strain CFR UFR146, genotype TEM-1, KPC-2): 64 µg/mL
MIC ([2]; strain CFR UFR147, genotype TEM-1, CTX-M-15, OXA-1, OXA-181, OXA-10, OXA-9, NDM-1, ArmA, dfrA12, aadA2, antibiotic alone): >128 µg/mL
MIC ATB in combination ([2]; strain CFR UFR147, with AF2 @ 8 μg/mL): <0.25 µg/mL
MIC ATB in combination ([2]; strain CFR UFR147, with AF3 @ 8 μg/mL): <0.25 µg/mL
MIC ATB in combination ([2]; strain CFR UFR147, with CLA @ 4 μg/mL): >128 µg/mL
MIC ([2]; strain CFR UFR148, genotype TEM-1, TEM-2, CTX-M-15, NDM-1, antibiotic alone): >128 µg/mL
MIC ATB in combination ([2]; strain CFR UFR148, with AF2 @ 8 μg/mL): <0.25 µg/mL
MIC ATB in combination ([2]; strain CFR UFR148, with AF3 @ 8 μg/mL): <0.25 µg/mL
MIC ATB in combination ([2]; strain CFR UFR148, with CLA @ 4 μg/mL): >128 µg/mL
MIC ([2]; strain CFR UFR248, genotype CTX-M-15): >128 µg/mL
MIC ([2]; strain CFR UFR249, genotype TEM-1, CTX-M-15): >128 µg/mL
MIC ([2]; strain CFR UFR250, compound alone): >128 µg/mL
MIC ([2]; strain CFR UFR250, genotype TEM-1, SHV-28, CTX-M-15): >128 µg/mL
MIC ([2]; strain CFR UFR251, genotype SHV-11, VIM-1, antibiotic alone): >128 µg/mL
MIC ATB in combination ([2]; strain CFR UFR251, with AF2 @ 8 μg/mL): <0.25 µg/mL
MIC ATB in combination ([2]; strain CFR UFR251, with AF3 @ 8 μg/mL): <0.25 µg/mL
MIC ATB in combination ([2]; strain CFR UFR251, with CLA @ 4 μg/mL): >128 µg/mL
MIC ([2]; strain CFR UFR252, genotype VIM-2, antibiotic alone): >128 µg/mL

Reference: patent US20200017495A1, “NOVEL HETEROCYCLIC COMPOUNDS AND THEIR USE IN PREVENTING OR TREATING BACTERIAL INFECTIONS” (priority 2017, published 2020)
